Test results as given in patent US9745291B2, “PRMT5 inhibitors containing a dihydro- or tetrahydroisoquinoline and uses thereof” (Epizyme, Inc., priority 2012, dated 2017).

Target: PRMT5/MEP50 (Homo sapiens (Human), UniProt O14744)
Assay: PRMT5 Biochemical Assay (PRMT5/MEP50 enzyme assay on peptide substrate, 3H-SAM Flashplate)
Details: PRMT5 biochemical assay; read-out: Biochemical IC50
Description: S-adenosylmethionine (SAM), S-adenosylhomocysteine (SAH), bicine, KCl, Tween20, dimethylsulfoxide (DMSO), bovine skin gelatin (BSG), and Tris(2-carboxyethyl)phosphine hydrochloride solution (TCEP) were purchased from Sigma-Aldrich at the highest level of purity possible. ^3H-SAM was purchase from American Radiolabeled Chemicals with a specific activity of 80 Ci/mmol. 384-well streptavidin Flashplates were purchased from PerkinElmer.
Peptide representative of human histone H4 residues 1-15 was synthesized with a C-terminal linker-affinity tag motif and a C-terminal amide cap by 21st Century Biochemicals. […] The sequence was Ac-[…][K-Biot]-amide (SEQ ID NO.:3).
Full-length human MEP50 (NM_024102) clone was amplified from a human testis cDNA library incorporating a 5′ sequence encoding a 6-histidine tag (MHHHHHH)(SEQ ID NO.:5) fused directly to Arg 2 of MEP50. The amplified genes were sublconed into pENTR/D/TEV (Life Technologies) and subsequently transferred by Gateway™ attL×attR recombination to pDEST8 baculvirus expression vector (Life Technologies).
Recombinant baculovirus and Baculovirus-Infected Insect Cells (BIIC) were generated according to Bac-to-Bac kit instructions (Life Technologies) and Wasilko, 2006, respectively. Protein over-expression was accomplished by infecting exponentially growing Spodoptera frugiperda (SF9) cell culture at 1.2×10^6 cell/ml with a 5000 fold dilution of BIIC stock. Infections were carried out at 27° C. for 72 hours, harvested by centrifugation, and stored at −80° C. for purification.
Flag-PRMT5/6His-MeP50 was eluted with 300 mM Imidazole in the same buffer. […] Reference: Wasilko, D. J. and S. E. Lee: “TIPS: titerless infected-cells preservation and scale-up” Bioprocess J., 5 (2006), pp. 29-32.
General Procedure for PRMT5/MEP50 Enzyme Assays on Peptide Substrates.
The assays were all performed in a buffer consisting of 20 mM Bicine (pH=7.6), 1 mM TCEP, 0.005% BSG, and 0.002% Tween20, prepared on the day of use. Compounds in 100% DMSO (1 ul) were spotted into a polypropylene 384-well V-bottom plates (Greiner) using a Platemate Plus outfitted with a 384-channel head (Thermo Scientific). DMSO (1 ul) was added to Columns 11, 12, 23, 24, rows A-H for the maximum signal control and 1 ul of SAH, a known product and inhibitor of PRMT5/MEP50, was added to columns 11, 12, 23, 24, rows I-P for the minimum signal control. A cocktail (40 ul) containing the PRMT5/MEP50 enzyme and the peptide was added by Multidrop Combi (Thermo-Fisher). The compounds were allowed to incubate with PRMT5/MEP50 for 30 min at 25 degrees Celsius, then a cocktail (10 ul) containing ^3H-SAM was added to initiate the reaction (final volume=51 ul).

Sequence of PRMT5/MEP50 (O14744 other isoform, or with tags, fused parts or gaps): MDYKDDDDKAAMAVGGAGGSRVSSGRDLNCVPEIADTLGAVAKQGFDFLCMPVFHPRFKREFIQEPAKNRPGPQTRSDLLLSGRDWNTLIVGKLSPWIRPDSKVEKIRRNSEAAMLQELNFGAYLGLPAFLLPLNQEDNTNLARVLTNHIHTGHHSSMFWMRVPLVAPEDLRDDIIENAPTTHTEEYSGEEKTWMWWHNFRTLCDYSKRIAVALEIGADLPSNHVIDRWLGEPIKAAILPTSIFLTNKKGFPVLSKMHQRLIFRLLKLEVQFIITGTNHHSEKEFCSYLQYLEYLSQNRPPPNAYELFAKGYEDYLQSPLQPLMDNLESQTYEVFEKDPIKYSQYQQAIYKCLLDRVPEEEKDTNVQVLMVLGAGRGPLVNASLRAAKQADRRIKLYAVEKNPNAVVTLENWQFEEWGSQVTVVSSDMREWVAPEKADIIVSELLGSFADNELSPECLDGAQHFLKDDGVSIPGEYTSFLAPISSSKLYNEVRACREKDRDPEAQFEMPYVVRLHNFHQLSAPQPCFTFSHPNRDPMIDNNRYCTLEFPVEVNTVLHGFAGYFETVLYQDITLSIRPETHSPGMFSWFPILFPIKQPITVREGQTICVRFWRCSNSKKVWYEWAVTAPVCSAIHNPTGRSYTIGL
Sequence of PRMT5/MEP50 (Q9BQA1 other isoform, or with tags, fused parts or gaps partner): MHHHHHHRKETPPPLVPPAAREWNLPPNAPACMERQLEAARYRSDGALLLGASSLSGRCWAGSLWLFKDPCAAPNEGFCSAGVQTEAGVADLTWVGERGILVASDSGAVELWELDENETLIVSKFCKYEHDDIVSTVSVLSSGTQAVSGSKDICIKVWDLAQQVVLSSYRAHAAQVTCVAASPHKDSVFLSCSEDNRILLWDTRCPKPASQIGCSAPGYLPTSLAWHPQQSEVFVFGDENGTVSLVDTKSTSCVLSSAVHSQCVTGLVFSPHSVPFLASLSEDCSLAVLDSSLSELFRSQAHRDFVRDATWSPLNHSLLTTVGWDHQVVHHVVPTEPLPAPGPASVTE

SMILES | IC50 [nM]
O=C(COc1cccc(CN2CCOCC2)c1)NCC(O)CN1CCc2ccccc2C1 (stereo not drawn) [Compound 75] | < 100
O=C(NC[C@H](O)CN1CCc2ccccc2C1)C1CCCc2ccccc21 (stereo partly drawn) [Compound 180] | 1000 to 10000
O=C(COC1CCCOC1)NCC(O)CN1CCc2ccccc2C1 (stereo not drawn) [Compound 166] | 1000 to 10000
O=C(COc1cccc2cccnc12)NCC(O)CN1Cc2ccccc2C(F)(F)C1 (stereo not drawn) [Compound 144] | > 10000
O=C(COc1cccc(C(=O)NCCc2c[nH]cn2)c1)NC[C@@H](O)CN1CCc2ccccc2C1 [Compound 189] | 101 to 1000
CN1CCN(CCOCC(=O)NCC(O)CN2CCc3ccccc3C2)CC1 (stereo not drawn) [Compound 176] | 1000 to 10000
CN(C)c1ccccc1OCC(=O)NCC(O)CN1CCc2ccccc2C1 (stereo not drawn) [Compound 38] | < 100
O=C(CCc1nc2ccccc2[nH]1)NC[C@@H](O)CN1CCc2ccccc2C1 [Compound 192, (R)-3-(1H-benzo[d]imidazol-2-yl)-N-(3-(3,4-dihydroisoquinolin-2(1H)-yl)-2-hydroxypropyl)propanamide] | 101 to 1000
COc1ccc2cccc(OCC(=O)NC[C@@H](O)CN3CCc4ccccc4C3)c2n1 [Compound 98, (R)—N-(3-(3,4-dihydroisoquinolin-2(1H)-yl)-2-hydroxypropyl)-2-((2-methoxyquinolin-8-yl)oxy)acetamide] | < 100
O=C(COc1ccccc1OCCN1CCOCC1)NC[C@H](O)CN1CCc2ccccc2C1 [Compound 86] | < 100
CN(C)S(=O)(=O)c1ccccc1OCC(=O)NCC(O)CN1CCc2ccccc2C1 (stereo not drawn) [Compound 109] | < 100
C[C@H](Oc1cccc2cccnc12)C(=O)NC[C@H](O)CN1CCc2ccccc2C1 [Compound 76, (S)—N—((S)-3-(3,4-dihydroisoquinolin-2(1H)-yl)-2-hydroxypropyl)-2-(quinolin-8-yloxy)propanamide] | < 100
Cc1cn(C)c2cccc(OCC(=O)NC[C@@H](O)CN3CCc4ccccc4C3)c12 [Compound 164] | < 100
CC(=O)Nc1ncccc1OCC(=O)NCC(O)CN1CCc2ccccc2C1 (stereo not drawn) [Compound 147] | > 10000
CN1C(=O)COc2cccc(OCC(=O)NCC(O)CN3CCc4ccccc4C3)c21 (stereo not drawn) [Compound 80, N-(3-(3,4-Dihydroisoquinolin-2(1H)-yl)-2-hydroxypropyl)-2-(4-methyl-3-oxo-3,4-dihydro-2H-benzo[b][1,4]oxazin-5-yloxy)acetamide] | < 100
CS(=O)(=O)c1ccccc1OCC(=O)NCC(O)CN1CCc2ccccc2C1 (stereo not drawn) [Compound 37, N-(3-(3,4-dihydroisoquinolin-2(1H)-yl)-2-hydroxypropyl)-2-(2-(methylsulfonyl)phenoxy)acetamide] | < 100
O=C(COc1cccc2ccccc12)NCC(O)CN1CCc2ccccc2C1 (stereo not drawn) [Compound 66, N-(3-(3,4-dihydroisoquinolin-2(1H)-yl)-2-hydroxypropyl)-2-(naphthalen-1-yloxy)acetamide] | < 100
O=C(COc1cccc(C(=O)NCCn2ccnc2)c1)NC[C@@H](O)CN1CCc2ccccc2C1 [Compound 230] | 1000 to 10000
CC(O)(C(=O)NCC(O)CN1CCc2ccccc2C1)c1ccccc1 (stereo not drawn) [Compound 173] | 1000 to 10000
Cn1cncc1-c1ccccc1OCC(=O)NCC(O)CN1CCc2ccccc2C1 (stereo not drawn) [Compound 156] | 1000 to 10000
CC(=O)Nc1cccnc1OCC(=O)NCC(O)CN1CCc2ccccc2C1 (stereo not drawn) [Compound 128] | > 50000
Cn1ncc2ccc(OCC(=O)NCC(O)CN3CCc4ccccc4C3)cc21 (stereo not drawn) [Compound 23, N-(3-(3,4-dihydroisoquinolin-2(1H)-yl)-2-hydroxypropyl)-2-((1-methyl-1H-indazol-6-yl)oxy)acetamide] | < 100
O=C(CCc1nc2ccccc2[nH]1)NC[C@H](O)CN1CCc2ccccc2C1 [Compound 175, (S)-3-(1H-benzo[d]imidazol-2-yl)-N-(3-(3,4-dihydroisoquinolin-2(1H)-yl)-2-hydroxypropyl)propanamide] | < 100
CN1CCCC(c2ccccc2OCC(=O)NCC(O)CN2CCc3ccccc3C2)C1 (stereo not drawn) [Compound 130] | < 100

SMILES | IC50 [nM]
CN1CCN(c2cccc(OCC(=O)NC[C@@H](O)CN3CCc4ccccc4C3)c2)CC1 [Compound 190] | < 100
O=C(COc1cccc2c1OCCO2)NCC(O)CN1CCc2ccccc2C1 (stereo not drawn) [Compound 100] | < 100
O=C(COc1cccc2nccnc12)NCC(O)CN1CCc2ccccc2C1 (stereo not drawn) [Compound 92] | < 100
O=C(COc1ccccc1N1CCOCC1)NC[C@H](O)CN1CCc2ccccc2C1 [Compound 77] | < 100
O=C(COc1cccc(C(=O)NCCN2CCOCC2)c1)NC[C@@H](O)CN1CCc2ccccc2C1 [Compound 188] | 1000 to 10000
CN1CCN(S(=O)(=O)c2ccccc2OCC(=O)NCC(O)CN2CCc3ccccc3C2)CC1 (stereo not drawn) [Compound 108] | < 100
CS(=O)(=O)Nc1ncccc1OCC(=O)NCC(O)CN1CCc2ccccc2C1 (stereo not drawn) [Compound 139] | > 10000
O=C(COc1ccccc1C1CCNCC1)NCC(O)CN1CCc2ccccc2C1 (stereo not drawn) [Compound 103] | < 100
O=C(COc1cccc2c1CCNC2)NCC(O)CN1CCc2ccccc2C1 (stereo not drawn) [Compound 91] | < 100
CC(Oc1ccccc1NS(C)(=O)=O)C(=O)NCC(O)CN1CCc2ccccc2C1 (stereo not drawn) [Compound 157] | 1000 to 10000
O=C(COc1cccc2c1CCCN2Cc1ccccc1)NCC(O)CN1CCc2ccccc2C1 (stereo not drawn) [Compound 4] | < 100
CC(Oc1ccccc1)C(=O)NCC(O)CN1CCc2ccccc2C1 (stereo not drawn) [Compound 19, N-(3-(3,4-dihydroisoquinolin-2(1H)-yl)-2-hydroxypropyl)-2-phenoxypropanamide] | < 100
CS(=O)(=O)Nc1cccc(OCC(=O)NCC(O)CN2CCc3ccccc3C2)c1 (stereo not drawn) [Compound 28, N-(3-(3,4-dihydroisoquinolin-2(1H)-yl)-2-hydroxypropyl)-2-(3-(methylsulfonamido)phenoxy)acetamide] | < 100
[2H]C1([2H])Cc2ccccc2C([2H])([2H])N1C[C@@H](O)CNC(=O)CCc1nc2ccccc2[nH]1 [Compound 251] | 101 to 1000
O=C(COCCN1CCOCC1)NCC(O)CN1CCc2ccccc2C1 (stereo not drawn) [Compound 167] | 1000 to 10000
CC(=O)N1CCc2c(cccc2OCC(=O)NCC(O)CN2CCc3ccccc3C2)C1 (stereo not drawn) [Compound 101] | < 100
O=C(NC[C@H](O)CN1CCc2ccccc2C1)[C@H]1Cc2ccccc2CN1 [Compound 185] | 101 to 1000
CS(=O)(=O)c1cccc(OCC(=O)NCC(O)CN2CCc3ccccc3C2)c1 (stereo not drawn) [Compound 47] | < 100
Cc1nn(C)c2cccc(OCC(=O)NCC(O)CN3CCc4ccccc4C3)c12 (stereo not drawn) [Compound 158] | < 100
CC(=O)Nc1cncc(OCC(=O)NCC(O)CN2CCc3ccccc3C2)c1 (stereo not drawn) [Compound 148] | > 10000
CN(C)c1cccnc1OCC(=O)NCC(O)CN1CCc2ccccc2C1 (stereo not drawn) [Compound 133] | > 10000
C[C@@H](Oc1cccc2cccnc12)C(=O)NC[C@H](O)CN1CCc2ccccc2C1 [Compound 73, (R)—N—((S)-3-(3,4-dihydroisoquinolin-2(1H)-yl)-2-hydroxypropyl)-2-(quinolin-8-yloxy)propanamide] | < 100
Cn1ccnc1-c1cccc(OCC(=O)NC[C@@H](O)CN2CCc3ccccc3C2)c1 [Compound 187] | 1000 to 10000
COc1ccccc1OCC(=O)NCC(O)CN1CCc2ccccc2C1 (stereo not drawn) [Compound 22] | < 100
